Paper PMC12067145 (ACS Medicinal Chemistry Letters, 2025)

Assays:
[1] = Liver microsome intrinsic clearance (human); assay type: in vitro ADME; conditions: pH 7.4; human liver microsomes; read-out: LMS CLINT human
Experimental: After a 5 min preincubation, the reaction was initiated by the addition of NADPH (1 mM). At selected time intervals between 0 ~ 60 min (e.g. 0, 3, 7, 15, 25, 45 and/or 60 min), aliquots were taken and subsequently placed into a 96-well plate containing cold acetonitrile with an internal standard (50 ng/mL carbamazepine). Plates were then centrifuged at 3000 rcf (4 °C) for 10 min, and the supernatant was transferred to a separate 96-well plate and diluted 1:1 with water for LC/MS/MS analysis. The in vitro half-life (T 1/2, min, Eq. 1), intrinsic clearance (CLint, mL/min/kg, Eq. 2), and subsequent predicted hepatic clearance (CLhep, mL/min/kg, Eq. 3) were determined employing the following equations: […]
where k represents the slope from linear regression analysis of the natural log percent remaining of a test compound as a function of incubation time […]
(2) CLint = in vitroT1/2 x mg microsomes x gram liver x kg body wt ascale-up factors: of 20 (human) or 45 (rat) or 87.5 (mouse) […]
where Qh (hepatic blood flow, mL/min/kg) is 21 (human) or 70 (rat) or 90 (mouse).
LC/MS/MS Bioanalysis of Samples from Plasma Protein Binding and Intrinsic Clearance […]
Samples were analyzed on a Thermo Electron TSQ Quantum Ultra triple quad mass spectrometer (San Jose, CA) via electrospray ionization (ESI) with two Themo Electron Accella pumps (San Jose, CA), and a Leap Technologies CTC PAL autosampler (Carrboro, NC). Analytes were separated by gradient elution on a dual column system with two Thermo Hypersil Gold (2.1 x 30 mm, 1.9 µm) columns (San Jose, CA) thermostated at 40 °C. HPLC mobile phase A was 0.1% formic acid in water and mobile phase B was 0.1% formic acid in acetonitrile. The gradient started […]
for 0.2 min; returned to 10% B in 0.1 min. The total run time was 1.3 min and the HPLC flow rate was 0.8 mL/min. While pump 1 ran the gradient method, pump 2 equilibrated the alternate column isocratically at 10% B. Compound optimization, data collection, and processing were performed using Thermo Electron's QuickQuan software (v2.3) and Xcalibur (v2.0.7 SP1). […]

Kir2.1 = Kir2.1 (Homo sapiens, UniProt P63252); experiment: Cardiac ion channel MPC selectivity panel; assay type: cell-based
Kv4.3 = Kv4.3 (Homo sapiens, UniProt Q9UK17); experiment: Cardiac ion channel MPC selectivity panel; assay type: cell-based
Nav1.5 = Nav1.5 (Homo sapiens, UniProt Q14524); experiment: Cardiac ion channel MPC selectivity panel; assay type: cell-based
Adenosine A2A = Adenosine A2A (Homo sapiens, UniProt P29274); experiment: Eurofins lead profiling screen (radioligand binding)
Adrenergic β1 = Adrenergic β1 (Homo sapiens, UniProt P08588); experiment: as above
Dopamine D2S = Dopamine D2S (Homo sapiens, UniProt P14416); experiment: as above
Endothelin ETB = Endothelin ETB (Homo sapiens, UniProt P24530); experiment: as above
Glutamate, Kainate = experiment: as above; parameters: species or system Rat
Glutamate, NMDA, Glycine = Glutamate, NMDA, Glycine (Rattus norvegicus, UniProt P35439); experiment: as above
[2] = test system: Glutamate, NMDA, Phencyclidine; experiment: as above; parameters: species or system Rat
Histamine H2 = Histamine H2 (Homo sapiens, UniProt P25021); experiment: as above
Histamine H3 = Histamine H3 (Homo sapiens, UniProt Q9Y5N1); experiment: as above
Interleukin IL-1 R1 = Interleukin IL-1 R1 (Homo sapiens, UniProt P14778); experiment: as above
Muscarinic M1 = Muscarinic M1 (Homo sapiens, UniProt P11229); experiment: as above
Neuropeptide Y Y2 = Neuropeptide Y Y2 (Homo sapiens, UniProt P49146); experiment: as above
Purinergic P2Y = experiment: as above; parameters: species or system Rat
Serotonin (5-HT1A) = Serotonin (5-HT1A) (Homo sapiens, UniProt P08908); experiment: as above
Sigma σ1 = Sigma σ1 (Homo sapiens, UniProt Q99720); experiment: as above
Thyroid Hormone = experiment: as above; parameters: species or system Rat
Transporter, GABA = Transporter, GABA (Rattus norvegicus, UniProt P23978); experiment: as above

Chain of Endothelin ETB (P24530 27-442): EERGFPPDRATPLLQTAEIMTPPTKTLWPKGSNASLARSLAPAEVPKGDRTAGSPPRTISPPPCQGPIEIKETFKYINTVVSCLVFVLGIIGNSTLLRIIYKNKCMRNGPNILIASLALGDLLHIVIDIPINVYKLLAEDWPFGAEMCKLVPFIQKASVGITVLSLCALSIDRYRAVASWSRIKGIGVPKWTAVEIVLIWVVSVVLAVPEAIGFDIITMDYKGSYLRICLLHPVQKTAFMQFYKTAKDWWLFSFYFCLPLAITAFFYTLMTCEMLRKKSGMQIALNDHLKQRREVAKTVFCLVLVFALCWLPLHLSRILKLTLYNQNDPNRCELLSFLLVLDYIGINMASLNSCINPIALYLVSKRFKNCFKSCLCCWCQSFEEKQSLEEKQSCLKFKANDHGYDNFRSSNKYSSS
Chain of Interleukin IL-1 R1 (P14778 18-569): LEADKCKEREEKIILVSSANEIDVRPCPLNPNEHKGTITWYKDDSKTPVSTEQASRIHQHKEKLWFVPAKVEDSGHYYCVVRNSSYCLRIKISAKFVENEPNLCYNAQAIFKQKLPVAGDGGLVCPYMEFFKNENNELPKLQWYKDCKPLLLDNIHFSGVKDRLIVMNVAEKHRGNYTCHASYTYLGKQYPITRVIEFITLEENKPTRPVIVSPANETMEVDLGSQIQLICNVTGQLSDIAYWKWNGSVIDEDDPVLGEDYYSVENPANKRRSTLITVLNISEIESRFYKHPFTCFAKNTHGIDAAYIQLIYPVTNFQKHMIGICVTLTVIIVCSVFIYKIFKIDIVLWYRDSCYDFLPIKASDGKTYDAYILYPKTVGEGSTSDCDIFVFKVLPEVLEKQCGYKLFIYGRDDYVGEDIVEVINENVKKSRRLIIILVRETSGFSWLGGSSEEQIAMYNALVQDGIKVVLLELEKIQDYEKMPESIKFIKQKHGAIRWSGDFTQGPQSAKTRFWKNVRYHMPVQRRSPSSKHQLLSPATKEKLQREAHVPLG
Chain of Neuropeptide Y Y2 (P49146 whole entry): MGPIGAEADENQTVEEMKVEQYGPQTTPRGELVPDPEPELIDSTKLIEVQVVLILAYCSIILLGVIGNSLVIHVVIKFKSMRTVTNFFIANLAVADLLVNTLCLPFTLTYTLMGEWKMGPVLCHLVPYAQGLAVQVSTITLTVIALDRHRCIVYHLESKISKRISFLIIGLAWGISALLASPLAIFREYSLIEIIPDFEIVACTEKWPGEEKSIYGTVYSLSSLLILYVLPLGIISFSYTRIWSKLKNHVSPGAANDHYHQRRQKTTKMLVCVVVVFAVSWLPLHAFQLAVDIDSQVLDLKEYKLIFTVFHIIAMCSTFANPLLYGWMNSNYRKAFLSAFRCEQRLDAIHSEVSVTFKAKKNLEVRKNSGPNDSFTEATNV
Chain of Serotonin (5-HT1A) (P08908 whole entry): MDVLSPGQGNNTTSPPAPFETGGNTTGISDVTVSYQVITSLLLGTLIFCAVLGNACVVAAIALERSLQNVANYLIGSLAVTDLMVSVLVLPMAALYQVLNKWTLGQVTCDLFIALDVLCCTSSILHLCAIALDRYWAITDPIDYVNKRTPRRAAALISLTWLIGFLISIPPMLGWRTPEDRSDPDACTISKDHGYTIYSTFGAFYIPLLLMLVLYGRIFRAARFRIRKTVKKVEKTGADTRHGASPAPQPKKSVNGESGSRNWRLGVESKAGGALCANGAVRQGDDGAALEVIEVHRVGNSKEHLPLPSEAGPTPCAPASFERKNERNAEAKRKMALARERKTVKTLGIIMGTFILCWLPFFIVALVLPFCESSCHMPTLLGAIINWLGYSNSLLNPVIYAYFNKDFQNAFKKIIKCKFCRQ
Chain of Dopamine D2S (P14416 1-414 isoform P14416-2): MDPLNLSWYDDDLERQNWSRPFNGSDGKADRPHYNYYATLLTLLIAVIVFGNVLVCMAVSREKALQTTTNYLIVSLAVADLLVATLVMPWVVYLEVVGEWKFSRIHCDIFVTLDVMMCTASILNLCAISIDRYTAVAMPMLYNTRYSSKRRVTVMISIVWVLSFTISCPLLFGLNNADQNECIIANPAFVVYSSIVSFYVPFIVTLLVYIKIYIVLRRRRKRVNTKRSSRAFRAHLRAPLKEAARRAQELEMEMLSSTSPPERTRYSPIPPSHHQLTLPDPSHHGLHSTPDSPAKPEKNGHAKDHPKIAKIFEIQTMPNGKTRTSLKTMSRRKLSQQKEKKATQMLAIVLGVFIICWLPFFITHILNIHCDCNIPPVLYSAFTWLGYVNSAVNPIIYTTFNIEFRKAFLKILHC
Chain of Muscarinic M1 (P11229 whole entry): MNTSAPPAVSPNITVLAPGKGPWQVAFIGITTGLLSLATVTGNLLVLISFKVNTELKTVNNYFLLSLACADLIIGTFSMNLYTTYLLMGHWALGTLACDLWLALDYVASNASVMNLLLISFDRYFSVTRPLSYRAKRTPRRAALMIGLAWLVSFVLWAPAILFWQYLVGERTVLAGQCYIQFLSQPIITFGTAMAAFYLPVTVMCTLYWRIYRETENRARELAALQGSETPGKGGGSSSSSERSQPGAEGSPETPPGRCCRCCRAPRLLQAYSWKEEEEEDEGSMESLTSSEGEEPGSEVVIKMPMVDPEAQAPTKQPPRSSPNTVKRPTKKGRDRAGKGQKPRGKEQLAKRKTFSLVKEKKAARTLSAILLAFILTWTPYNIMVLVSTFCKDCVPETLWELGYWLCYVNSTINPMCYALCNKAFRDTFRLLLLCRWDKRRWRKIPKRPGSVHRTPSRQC
Chain of Adrenergic β1 (P08588 whole entry): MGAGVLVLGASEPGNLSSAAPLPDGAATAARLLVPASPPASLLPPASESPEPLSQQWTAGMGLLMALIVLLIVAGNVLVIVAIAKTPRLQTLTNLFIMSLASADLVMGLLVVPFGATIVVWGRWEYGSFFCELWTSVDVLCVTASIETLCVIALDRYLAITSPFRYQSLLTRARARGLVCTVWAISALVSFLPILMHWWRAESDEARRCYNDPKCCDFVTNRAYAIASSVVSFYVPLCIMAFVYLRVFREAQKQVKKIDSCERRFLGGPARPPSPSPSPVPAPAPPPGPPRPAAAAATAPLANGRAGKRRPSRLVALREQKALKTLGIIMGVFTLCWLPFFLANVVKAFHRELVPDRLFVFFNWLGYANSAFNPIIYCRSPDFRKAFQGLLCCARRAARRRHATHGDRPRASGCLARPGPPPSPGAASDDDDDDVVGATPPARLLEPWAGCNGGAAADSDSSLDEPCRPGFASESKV
Chain of Sigma σ1 (Q99720 whole entry): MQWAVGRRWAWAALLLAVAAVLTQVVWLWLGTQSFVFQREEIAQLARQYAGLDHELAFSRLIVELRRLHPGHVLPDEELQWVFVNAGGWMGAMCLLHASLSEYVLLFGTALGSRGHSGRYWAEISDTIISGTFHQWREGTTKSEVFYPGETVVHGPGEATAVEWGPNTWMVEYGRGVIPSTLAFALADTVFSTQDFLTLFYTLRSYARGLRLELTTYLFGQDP
Chain of Kv4.3 (Q9UK17 whole entry): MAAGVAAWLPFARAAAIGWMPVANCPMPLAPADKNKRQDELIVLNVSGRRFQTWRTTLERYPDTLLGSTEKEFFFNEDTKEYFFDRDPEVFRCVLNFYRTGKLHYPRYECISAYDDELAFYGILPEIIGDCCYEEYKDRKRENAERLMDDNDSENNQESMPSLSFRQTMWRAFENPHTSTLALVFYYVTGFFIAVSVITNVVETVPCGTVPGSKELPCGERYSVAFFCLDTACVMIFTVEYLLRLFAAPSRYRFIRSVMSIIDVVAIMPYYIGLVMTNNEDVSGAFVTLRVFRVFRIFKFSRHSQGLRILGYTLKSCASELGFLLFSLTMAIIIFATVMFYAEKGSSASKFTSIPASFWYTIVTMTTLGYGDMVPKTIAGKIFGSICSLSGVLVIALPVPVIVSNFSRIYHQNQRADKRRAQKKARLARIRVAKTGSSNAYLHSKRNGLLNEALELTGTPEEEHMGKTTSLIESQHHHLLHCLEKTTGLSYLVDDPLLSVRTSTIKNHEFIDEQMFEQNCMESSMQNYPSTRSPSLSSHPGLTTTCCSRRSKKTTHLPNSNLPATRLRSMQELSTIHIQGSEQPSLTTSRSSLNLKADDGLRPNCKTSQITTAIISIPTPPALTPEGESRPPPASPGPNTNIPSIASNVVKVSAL
Chain of Histamine H3 (Q9Y5N1 whole entry): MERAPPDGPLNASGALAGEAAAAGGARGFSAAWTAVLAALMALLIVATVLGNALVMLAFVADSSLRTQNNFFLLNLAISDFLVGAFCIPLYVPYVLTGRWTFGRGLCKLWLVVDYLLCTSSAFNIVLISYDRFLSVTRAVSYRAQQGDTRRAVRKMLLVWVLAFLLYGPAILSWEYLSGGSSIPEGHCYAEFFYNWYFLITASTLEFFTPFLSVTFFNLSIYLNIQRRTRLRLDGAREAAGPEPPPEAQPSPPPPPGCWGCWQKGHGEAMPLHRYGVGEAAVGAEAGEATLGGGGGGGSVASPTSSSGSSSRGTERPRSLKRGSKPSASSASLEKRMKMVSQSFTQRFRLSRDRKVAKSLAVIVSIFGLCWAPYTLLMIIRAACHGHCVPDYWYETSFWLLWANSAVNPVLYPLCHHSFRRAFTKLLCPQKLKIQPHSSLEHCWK
Chain of Kir2.1 (P63252 whole entry): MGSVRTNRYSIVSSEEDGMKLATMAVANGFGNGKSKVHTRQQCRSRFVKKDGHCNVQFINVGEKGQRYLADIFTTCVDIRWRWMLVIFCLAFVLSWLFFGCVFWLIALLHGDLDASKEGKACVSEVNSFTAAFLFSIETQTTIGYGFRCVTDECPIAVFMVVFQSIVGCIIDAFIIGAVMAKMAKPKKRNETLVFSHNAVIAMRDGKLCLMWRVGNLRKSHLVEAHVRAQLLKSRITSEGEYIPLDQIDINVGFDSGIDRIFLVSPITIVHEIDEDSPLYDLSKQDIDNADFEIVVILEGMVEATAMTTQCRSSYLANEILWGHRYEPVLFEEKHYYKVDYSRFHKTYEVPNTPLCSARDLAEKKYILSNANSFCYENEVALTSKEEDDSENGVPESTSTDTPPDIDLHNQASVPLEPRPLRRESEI

Cc1cc(C#Cc2ccc(F)cc2)cnc1NC(=O)c1cc(NC(=O)OC(C)(C)C)ccc1Cl [Compound 14c]
CLint scaled at 1 µM [1]: 7.5 mL/min/kg
% at 10 μM, Kir2.1 (Kir2.1): < 50%
% at 10 μM, Kv4.3 (Kv4.3): < 50%
% at 10 μM, Nav1.5 (Nav1.5): < 50%

O=C(NCc1ccc(OC(F)(F)F)cc1F)c1ccc2ncnn2c1 [ONO-2920632]
inhibition at 10 µM (Adenosine A2A): 3%
inhibition at 10 µM (Adrenergic β1): -1%
inhibition at 10 µM (Dopamine D2S): -1%
inhibition at 10 µM (Endothelin ETB): -6%
% Inhibition at 10 µM (Glutamate, Kainate): 3%
inhibition at 10 µM (Glutamate, NMDA, Glycine): -6%
% Inhibition at 10 µM [2]: -15%
inhibition at 10 µM (Histamine H2): -12%
inhibition at 10 µM (Histamine H3): 4%
inhibition at 10 µM (Interleukin IL-1 R1): -1%
inhibition at 10 µM (Muscarinic M1): 4%
inhibition at 10 µM (Neuropeptide Y Y2): 6%
% Inhibition at 10 µM (Purinergic P2Y): 1%
inhibition at 10 µM (Serotonin (5-HT1A)): 4%
inhibition at 10 µM (Sigma σ1): 30%
% Inhibition at 10 µM (Thyroid Hormone): 3%
inhibition at 10 µM (Transporter, GABA): 19%
